Assay results: patent EP1064944A1, “Protein kinase N inhibitor comprising Fasudil” (priority 1999, dated 2001)

Key:
[1] = test system: Rat MM-1 Ascites Hepatoma cells bearing V14 Rho A; experiment: Peritoneal invasion of Rat MM-1 ascites hepatoma cells bearing V14 Rho A (carcinomatous peritonitis model); format: in vivo, male Donryu rats; settings: after 11 days, 5 rats
Procedure: MMI ascites hepatoma cells (2x10^7) stably expressing Val 14-RhoA were injected into the peritoneal cavities of male Donryu rats (body weight 100g) (to obtain a model of rat having MM-1 ascites Hepatoma cells bearing V14 Rho A). Fasudil was intravenously delivered at the indicated dose (0, 0.1 mg/Kg, 1 mg/Kg, and 10 mg/Kg) 3 times per day. After 11 days, the animals were sacrificed and (i) tumor nodules and tumor cell dissemination on peritoneum were assessed (This test was conducted by the method which is similar to one described in Nature Medicine Volume 5, Number 2, February 1999, p.223-225 and was conducted with 5 rats at each dose.). In addition, hyperemia of the surface in the peritoneum was also observed.

[2] = biological target: ROCK (Homo sapiens, UniProt Q13464); experiment: ROCK inhibition (from Table 1 of Nature vol. 389, p. 991); format: biochemical; settings: based on the Ki values of Table 1 of Nature vol. 389, p. 991
Sequence of ROCK (Q13464 whole entry): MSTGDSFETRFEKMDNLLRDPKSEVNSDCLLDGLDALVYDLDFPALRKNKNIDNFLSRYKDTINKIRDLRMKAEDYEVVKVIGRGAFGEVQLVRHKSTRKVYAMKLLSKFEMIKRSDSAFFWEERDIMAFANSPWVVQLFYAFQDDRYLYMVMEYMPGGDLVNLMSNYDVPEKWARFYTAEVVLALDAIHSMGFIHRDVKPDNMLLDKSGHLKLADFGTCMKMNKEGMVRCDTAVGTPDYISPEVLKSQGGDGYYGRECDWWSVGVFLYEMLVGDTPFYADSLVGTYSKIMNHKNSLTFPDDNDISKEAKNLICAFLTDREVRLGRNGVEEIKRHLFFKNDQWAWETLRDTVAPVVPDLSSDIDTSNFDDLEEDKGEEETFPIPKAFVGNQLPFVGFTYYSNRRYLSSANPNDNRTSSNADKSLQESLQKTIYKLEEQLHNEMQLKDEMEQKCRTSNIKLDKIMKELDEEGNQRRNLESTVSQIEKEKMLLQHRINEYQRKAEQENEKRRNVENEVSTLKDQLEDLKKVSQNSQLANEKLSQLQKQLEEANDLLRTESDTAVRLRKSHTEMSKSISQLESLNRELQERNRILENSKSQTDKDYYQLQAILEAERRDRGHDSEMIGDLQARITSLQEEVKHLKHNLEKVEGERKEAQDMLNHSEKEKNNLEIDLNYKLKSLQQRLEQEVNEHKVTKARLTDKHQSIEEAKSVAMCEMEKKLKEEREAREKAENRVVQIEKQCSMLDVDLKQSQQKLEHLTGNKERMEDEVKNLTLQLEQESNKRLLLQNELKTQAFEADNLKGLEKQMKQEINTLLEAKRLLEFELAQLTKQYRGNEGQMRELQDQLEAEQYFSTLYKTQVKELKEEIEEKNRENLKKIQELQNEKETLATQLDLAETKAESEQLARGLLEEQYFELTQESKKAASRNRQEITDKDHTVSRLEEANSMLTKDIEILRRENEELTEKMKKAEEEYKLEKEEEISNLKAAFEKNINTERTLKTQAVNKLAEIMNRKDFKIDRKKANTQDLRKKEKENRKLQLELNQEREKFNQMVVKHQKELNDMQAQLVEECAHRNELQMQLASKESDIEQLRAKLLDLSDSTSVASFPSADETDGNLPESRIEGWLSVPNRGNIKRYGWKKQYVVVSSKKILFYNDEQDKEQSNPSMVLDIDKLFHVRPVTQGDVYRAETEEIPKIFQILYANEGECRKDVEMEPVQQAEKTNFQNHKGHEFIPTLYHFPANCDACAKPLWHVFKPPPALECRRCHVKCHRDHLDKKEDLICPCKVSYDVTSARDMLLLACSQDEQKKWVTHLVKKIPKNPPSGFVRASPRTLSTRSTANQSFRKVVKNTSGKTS
Text: According to Table 1 of Nature vol. […] 389, p. 991/30 October 1997 based on the Ki values.

[3] = biological target: human-recombinant protein kinase N (Homo sapiens, UniProt Q16512); experiment: Measurement of inhibition activity of protein kinase N (PKN); format: biochemical
Sequence of human-recombinant protein kinase N (Q16512 whole entry): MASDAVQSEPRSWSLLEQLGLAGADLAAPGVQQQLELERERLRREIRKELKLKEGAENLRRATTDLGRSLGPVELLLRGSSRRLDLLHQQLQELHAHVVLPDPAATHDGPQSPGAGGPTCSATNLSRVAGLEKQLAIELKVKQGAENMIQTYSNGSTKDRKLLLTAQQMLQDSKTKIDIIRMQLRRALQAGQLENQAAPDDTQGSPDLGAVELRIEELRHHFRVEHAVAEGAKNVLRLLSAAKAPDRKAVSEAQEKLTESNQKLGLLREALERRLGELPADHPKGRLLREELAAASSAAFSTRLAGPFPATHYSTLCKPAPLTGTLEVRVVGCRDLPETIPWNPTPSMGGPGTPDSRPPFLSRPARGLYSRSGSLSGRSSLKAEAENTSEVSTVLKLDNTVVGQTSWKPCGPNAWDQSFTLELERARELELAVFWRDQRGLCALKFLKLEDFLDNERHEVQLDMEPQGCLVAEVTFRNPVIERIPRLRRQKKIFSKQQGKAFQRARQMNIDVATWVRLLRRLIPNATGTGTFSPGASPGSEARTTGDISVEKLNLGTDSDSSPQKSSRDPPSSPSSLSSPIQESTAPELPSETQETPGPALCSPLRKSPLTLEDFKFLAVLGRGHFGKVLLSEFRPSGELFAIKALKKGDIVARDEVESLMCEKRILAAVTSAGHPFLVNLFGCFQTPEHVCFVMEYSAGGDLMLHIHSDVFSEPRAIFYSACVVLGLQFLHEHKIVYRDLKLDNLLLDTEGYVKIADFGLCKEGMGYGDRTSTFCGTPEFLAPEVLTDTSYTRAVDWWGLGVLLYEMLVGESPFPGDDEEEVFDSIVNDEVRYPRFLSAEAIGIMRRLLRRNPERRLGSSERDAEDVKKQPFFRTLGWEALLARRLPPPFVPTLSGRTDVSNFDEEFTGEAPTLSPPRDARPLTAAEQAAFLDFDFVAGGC
Sequence of human-recombinant protein kinase N (P61586 whole entry partner): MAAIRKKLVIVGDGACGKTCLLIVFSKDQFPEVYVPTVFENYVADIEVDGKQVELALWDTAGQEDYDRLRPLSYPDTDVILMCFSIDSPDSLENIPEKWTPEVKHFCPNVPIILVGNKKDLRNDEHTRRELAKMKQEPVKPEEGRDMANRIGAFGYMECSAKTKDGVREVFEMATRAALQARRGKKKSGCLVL
Procedure: The PKN reaction was carried out in 50 µl reaction buffer (20mM Tris HCI pH 7.5, 8mM MgCl2) containing (i) 40µM PKCα peptide ([…]) as a substrate of PKN, (ii) 1 µM GTPγS form GST-RhoA (prepared by the method of Method in ENZYMOLOGY Vol. 256 Small GTPases and Their Regulators Part B Rho Family P.3-10), (iii) 50µM, 20µM, 10µM and 5µM (as the final concentration of the reaction mixture) of ATP and 0.5µl of [γ-^32P] ATP (1.11 TBg/mmol, 74MBg/ml; supplied by NEN™ Life Science Product, Inc.), and (iv) a purified human-recombinant protein kinase N (prepared by using a Baculovirus expression system), in the presence of or in the absence of 1 µM of hexahydro-1-(5-isoquinolinesulfonyl)-1H-1,4-diazepine hydrochloride (Fasudil Hydrochloride). 30µl of the reaction mixture was spotted onto Whatman paper P81 (supplied by Whatman International Ltd.) after the incubation for 10 minutes at 30°C. After the spotting, the spotted Whatman paper was washed with 75mM phosphoric acid 5 times. Then incorporation of ^32P into the PKCα peptide on the washed paper was assessed by scintillation counting. Based on the assessment by scintillation counting, Km value was measured by Lineweaver-Burk plot (method), then K, value was calculated.

[4] = 0.1 mg/Kg intravenously 3 times per day
[5] = 1 mg/Kg intravenously 3 times per day
[6] = 10 mg/Kg intravenously 3 times per day

Cl.O=S(=O)(c1cccc2cnccc12)N1CCCNCC1 [Fasudil Hydrochloride, hexahydro-1-(5-isoquinolinesulfonyl)-1H-1,4-diazepine hydrochloride]
Hyperemia of the surface in the peritoneum [1, 4]: + (25-50% of surface in the peritoneum shows hyperemia) | Total number of tumor nodules on peritoneum [1, 4]: 22 | Hyperemia of the surface in the peritoneum [1, 5]: ± (less than 25% of surface in the peritoneum shows hyperemia) | Total number of tumor nodules on peritoneum [1, 5]: 11 | Hyperemia of the surface in the peritoneum [1, 6]: ± (less than 25% of surface in the peritoneum shows hyperemia) | Total number of tumor nodules on peritoneum [1, 6]: 0 | ROCK inhibitory activity relative to the inhibitory activity of protein kinase C [2]: 28 times | Ki ([3]; 1 µM Fasudil Hydrochloride, ATP 50, 20, 10 and 5 µM, Lineweaver-Burk plot, 10 minutes at 30°C): 922 nM | PKN inhibitory activity relative to the inhibitory activity of protein kinase C ([3]; based on the Ki values, protein kinase C Ki from Table 1 of Nature vol. 389, p. 991): ten times higher
